Results taken from US9546129B2, “DTPA prodrugs, compositions thereof, and methods of using the same” (priority 2012, dated 2017).

Assays:
[1] = Stability of C2E2 in plasma (rat); assay type: in vitro ADME; conditions: 37° C., up to two hours
Description: Prior to the study, 975 μL of plasma (Rat, Beagle and Human) was preheated to 37° C. in Eppendorff tubes and the test compound (C2E2) was prepared in DI water (10 mg/mL). The C2E2 was from Lot 050 obtained using Method 2. To initiate the study, 25 μL of the C2E2 solution was added to the pre-heated plasma and briefly vortexed, to mix. At 0, 15, 30, 60 and 120 minutes a 100 μL sample of plasma was taken, an equal volume of cold acetonitrile was added and mixed to precipitate plasma proteins. Samples were centrifuged at 4° C. and 14,000×g for 10 minutes to remove precipitated proteins, the supernatant was collected and the C2E2 concentration determined by HPLC-CAD. All conditions were repeated in triplicate.
HPLC Detection Methods: C2E2 analysis was performed on a prominence HPLC (Shimadzu Corporation, Kyoto, Japan) equipped with a Corona Ultra charged […] detector (CAD) (Thermo scientific, Sunnyvale, Calif.). […]
The gradient is 0.01-34.99 min: 22% B; 35.00-44.99 min: 33% B; 45.00-60.00 min: 38% B. The flow rate is 1.0 mL/min, a Thermo Hypersil ODS column (150 mm 4.6 mm i.d. with 5.0 μm particles) will be used, injection volume will be 10 μL and column oven temperature maintained at 25° C. […] The limit of quantification is 0.35 μg/mL. […]

[2] = system: Escherichia coli (E. coli) strain WP2uvrA; experiment: Bacterial Reverse Mutation Assay (E. coli); assay type: cell-based; conditions: for Dose level with reductions in mean numbers of revertant colonies (toxicity): WP2uvrA
Description: The objective of this study was to evaluate C2E2 for its ability to induce reverse mutations at the histidine locus in Salmonella typhimurium tester strains TA98, TA100, TA1535, and TA1537, and at the tryptophan locus of Escherichia coli (E. coli) strain WP2uvrA in the presence or absence of an exogenous mammalian metabolic activation system (S9).
C2E2 was evaluated in an initial mutagenicity assay in all five tester strains at dose levels of 5.00, 16.0, 50.0, 160, 500, 1600, and 5000 μg/plate with and without S9. C2E2 was from Lot 050 obtained using Method 2. C2E2 was prepared in Cell Culture Grade Water vehicle and formed a transparent colorless solution. […] The reductions in the numbers of revertant colonies and the enhanced background lawn growth are indicative of C2E2 treatment-related toxicity. With exception to the enhanced background lawn in TA1537 without S9, all other background lawns in all strains, with and without S9, were normal indicating there was appropriate bacterial growth during treatment to express a mutagenic event. There were no relevant increases in the numbers of revertant colonies observed at any dose level with any strain in the absence or presence of S9 metabolic activation.

[3] = system: Chinese hamster ovary (CHO) cells; experiment: In vitro chromosomal aberration assay; assay type: cell-based
Description: The objective of this in vitro assay was to evaluate the ability of C2E2 to induce chromosomal aberrations in cultured Chinese hamster ovary (CHO) cells with and without an exogenous metabolic activation system.
C2E2 was prepared in cell culture grade water (CCGW) and formed a colorless, transparent, solution. The C2E2 was from Lot 050 obtained using Method 2. Subsequent stocks were prepared by serial dilution in vehicle and all treatments were administered into 10 mL cultures in a volume of 10%. Vehicle control cultures were treated with 100 μL/mL per culture. The treatment periods were for 3 hours with and without metabolic activation or approximately 20 hours without metabolic activation.
In an initial chromosomal aberration assay (B1 test), C2E2 concentrations of 6.92, 9.89, 14.1, 20.2, 28.8, 41.2, 58.8, 84.0, 120, 172, 245, 350, and 500 μg/mL were tested in duplicate cultures in the 3- and 20-hour tests without S9 and in the 3-hour test with S9 metabolic activation. All cultures, under all test conditions, were harvested approximately 20 hours from the initiation of treatment. At culture termination, viable cells were counted and population doubling was calculated for measurement of cytotoxicity to support selection of dose levels for aberration analysis. Visual observations of cultures for general cell health and confluence were made prior to termination.

[4] = system: polychromatic erythrocytes (PCE) in Sprague-Dawley rat bone marrow; experiment: In vivo micronucleus assay
Description: The objective of this study was to evaluate C2E2 for in vivo clastogenic activity and/or disruption of the mitotic apparatus by detecting micronuclei in polychromatic erythrocytes (PCE) in Sprague-Dawley rat bone marrow.
C2E2 was formulated in cell culture grade water vehicle and the dose volume for all treatment groups was 20 mL/kg. The C2E2 was from Lot 050 obtained using Method 2.
Male rats were administered vehicle control, or 500, 1000, or 2000 mg/kg/day of C2E2 once a day for two days separated by approximately 24 hours. The 2000 mg/kg high dose is the limit dose for this assay recommended by ICH S2(R1) guidance. A positive control group of animals received a single 60 mg/kg cyclophosphamide treatment on the second day of dosing. […] Bone marrow was extracted approximately 24 hours after the last treatment in all groups and at least 2000 PCEs per animal were analyzed for the frequency of micronuclei. Cytotoxicity was assessed by scoring the number of PCEs and normochromatic erythrocytes (NCEs) observed while scoring at least 500 erythrocytes per animal.

[5] = Single dose toxicology study in rats (UNC-11.240-RMTD); assay type: in vivo; conditions: rat

CCOC(=O)CN(CCN(CCN(CC(=O)O)CC(=O)OCC)CC(=O)O)CC(=O)O [C2E2, 6,9-bis(carboxymethyl)-3-(2-ethoxy-2-oxoethyl)-11-oxo-12-oxa-3,6,9-triazatetradecan-1-oic acid]
Metabolism in plasma (observation) [1]: minimal or not detected
Dose level with reductions in mean numbers of revertant colonies (toxicity) ([2]; with S9): ≥ 500 μg/plate
Dose level with reductions in mean numbers of revertant colonies (toxicity) ([2]; without S9): 5000 μg/plate
Mutagenicity (reverse mutations at the tryptophan locus) ([2]; up to 5000 μg/plate, with and without S9): negative
Reduction in the mitotic index compared to vehicle control ([3]; 14.1 μg/mL, 20-hour test without S9): 53%
Cytotoxicity (observation) ([3]; 3-hour treatment with and without S9, up to 500 μg/mL): no relevant cytotoxicity
Induction of chromosomal aberrations ([3]; with and without S9, up to cytotoxicity limiting dose levels and 500 μg/mL): negative
Bone marrow cytotoxicity (PCE:NCE ratios) ([4]; 500, 1000, 2000 mg/kg/day x2 days, male rats): absence of treatment-related bone marrow cytotoxicity
Induction of micronuclei in rat bone marrow ([4]; 500, 1000, or 2000 mg/kg/day orally once a day for 2 days, male rats): negative
Clinical signs ([4]; one 2000 mg/kg/day animal, Day 2): audible respiration and hypoactive behavior
Maximum tolerated single dose [5]: 2000 mg/kg
